Key:
[1] = system: transgenic littermates overexpressing IFN-γ and/or SOCS1; experiment: IFN-γ-overexpressing mice crossed to PLP/SOCS1 mice, clinical and histological evaluation at postnatal day 21; assay type: in vivo; settings: for oligodendrocyte density: corpus callosum, postnatal day 21; for G ratio (axon diameter/fiber diameter ratio): hypomyelination defined as G ratio>0.8
Excerpt: The transgenic mice MBP/IFN-γ and GFAP/tTA×TRE/IFN-γ (lines 184/110 and 184/67) that overexpress IFN-γ in the CNS have been described elsewhere (Corbin et al., 1996; Gao et al., 2000; Lin et al., 2004, 2005). Briefly, MBP/IFN-γ mice are transgenic animals in which IFN-γ expression is driven by the myelin basic protein (MBP) transcriptional control region (Gao et al., 2000). GFAP/tTA×TRE/IFN-γ are double-transgenic mice obtained by mating single-transgenic GFAP/tTA to single-transgenic TRE/IFN-γ (lines 110 and 67) mice. The two TRE/IFN-γ mouse lines, line 110 and line 67, used in the experiments produce different amounts of IFN-γ when crossed to GFA/tTA mice (184/110 and 184/67) (Lin e al., 2004, 2005). GFAP/tTA×TRE/IFN-γ is a tetracycline-off-inducible system in which the glial fibrilary acidic protein (GFAP) transcriptional control region drives the expression of tTA, which in turn, binds to the TRE (tet responsive element) and initiates the expression of IFN-γ. Administration of doxycycline suppresses tTA DNA binding and IFN-γ expression, and doxycycline removal allows for temporally-controlled induction of IFN-γ expression (Gao et al., 1999).
IFN-γ-overexpressing mice were crossed to the PLP/SOCS1 mice in double-transgenic, (MBP/IFN-γ×PLP/SOCS1) and triple-transgenic (GFAP/tTA×TRE/IFN-γ×PLP/SOCS1) mating systems. MBP/IFN-γ×PLP/SOCS1 (172×PLP/SOCS1) mating was performed according to a standard mating protocol. The GFAP/tTA×TRE/IFN-γ×PLP/SOCS1 matings were performed in a 2-step mating process: GFAP/tTA mice were initially crossed to PLP/SOCS1 mice, and double-positive (184×PLP/SOCS1) offspring were then crossed to the TRE/IFN-γ lines 110 and 67, separately. This second mating step was performed according to the previously described “tet-off” protocol. Doxycycline 0.05 mg/ml (Sigma-Aldich) was added to the water of impregnated female mice until embryonic day 14, after which the animals were switched back to normal water, thereby allowing initiation of IFN-γ transcription, which peaks during the postnatal period (Lin et al., 2005).
The litters of the mating systems (F1 generation) were examined daily and sacrificed at postnatal day 21. Clinical evaluation included behavioral observation and challenged ladder walking to elicit tremor. Histological examination included quantitation of the number and density of oligodendrocytes and examination of the myelination patterns. Brain tissue was simultaneously obtained from each animal at the time of sacrifice to verify and measure the expression of IFN-γ and Flag-SOCS1 (see below). The clinical and histological findings were subsequently stratified according to genotype. All animal procedures were conducted in compliance with the National Institutes of Health Guide for Care and Use of Laboratory Animals and were approved by the Institutional Animal Care and Use Committee at The University of Chicago.
Oligodendrocyte cell density was assessed digitally using Axiovision software, at postnatal day 21, as previously described (Lin et al., 2005). The brains were sectioned sagittally through the corpus callosum dividing the brain in two symmetrical halves. Ten frozen sections from each half were prepared at 7 μm thickness, and numbered in the sequence of their preparation. The brains of three animals per study group were prepared in this fashion. Following the CC1 immunostaining the corresponding area of corpus callosum of each section was digitally selected and the corresponding total area obtained. CC1 cell counting was performed manually within the selected areas of each section, and the number of CC1 positive cells per square area (mm^2) calculated. The results were presented as mean±SD of CC1 (+) cells/mm^2 with n=3 animals per study group. […]

[2] = system: corpus callosum of GFAP/tTA; TRE/IFN-γ; PERK+/− mice; experiment: Remyelination after cuprizone in double transgenic mice on PERK+/+ or PERK+/− background; assay type: in vivo; settings: for remyelinated axons: 9 weeks
Excerpt: The involvement of the ER stress response in the reduction caused by IFN-γ to remyelinate lesions was examined in transgenic mice that were generated to be heterozygous for a loss of function mutation in pancreatic ER kinase (PERK) (Harding, et al., (2001) Mol Cell 7:1153-1163), and to be temporally regulated for expressing INF-γ in the CNS. TRE/IFN-γ mice were first crossed with PERK+/− mice (Harding, et al. (2001) Mol. Cell 7: 1153-1163) on the C57BL/6 background to generate mice the carry the PERK mutation, and the resulting progeny were crossed to GFAP/tTA mice to obtain transgenic mice that were heterozygous for the PERK mutation. The effect of PERK on remyelination in the presence or absence of INF-γ was evaluated as evaluated as a function of the level of myelination of oligodendrocytes in remyelinating lesions and the number of oligodendrocytes present in the remyelinating lesion.
The extent of remyelination was assessed as described in the previous examples in the corpus callosum of PERK+/+ and PERK+/− mice that were made to express INF-γ (DOX− PERK+/+ and DOX− PERK+/−), and in mice in which the expression of INF-γ was repressed (DOX+ PERK+/+ and DOX+ PERK+/−). Remyelination was determined by electron microscopy, and was related to the number of CC1 positive oligodendrocytes and the level of caspase-3 expression in the corpus callosum of all animals. The level of caspase-3 was determined by immunohistochemical methods using anti capsase antibody (active-casoase-3 antibody, 1:50; Cel Signaling Technology) and according to the method described in Example 1. Demyelination was induced in six-week-old GFAP/tTA; TRE/IFN-γ double transgenic mice on a PERK+/− background that had been maintained on doxycycline, by simultaneously treating the mice with 0.2% cuprizone and releasing them from doxycycline (DOX− PERK+/−). Remyelination was allowed to occur by withdrawing cuprizone at week 6.

interferon-γ [IFN-γ]
Incidence of tremor ([1]; 172 × PLP/SOCS1 mating system, ten mice per group): 0%
oligodendrocytes lost ([1]; 184/67 × PLP/SOCS1 system): approximately 40%
percentage of unmyelinated axons ([1]; 184/67 × PLP/SOCS1 system): 57%±7
oligodendrocyte density ([1]; 184/67 × PLP/SOCS1 system): 79±9 CC1 (+) cells/mm^2
G ratio (axon diameter/fiber diameter ratio) ([1]; 184/67 × PLP/SOCS1 system): 0.95±0.04
oligodendrocytes lost ([1]; 184/110 × PLP/SOCS1 system): approximately 20%
percentage of unmyelinated axons ([1]; 184/110 × PLP/SOCS1 system): 41%±6
oligodendrocyte density ([1]; 184/110 × PLP/SOCS1 system): 115±8 CC1 (+) cells/mm^2
G ratio (axon diameter/fiber diameter ratio) ([1]; 184/110 × PLP/SOCS1 system): 0.89±0.02
remyelinated axons ([2]; DOX− PERK+/+ mice): 31.1%±7.6%
number of CC1 positive oligodendrocytes ([2]; DOX− PERK+/+ mice, corpus callosum, week 9): 123.2±27.5 /0.04 mm^2
remyelinated axons ([2]; DOX− PERK+/− mice, 3 weeks after cuprizone removed): 15.6%±7.6%
CC1 positive oligodendrocytes in the corpus callosum ([2]; DOX− PERK+/− mice, week 9): only a few oligodendrocytes were detected
number of oligodendrocytes positive for caspase-3, DOX− PERK+/− relative to DOX− PERK+/+ ([2]; week 9): 2.3 times

— patent US8309790B2, “Animal models for demyelination disorders” (University of Chicago, priority 2005, dated 2012)
